A short description of data set [1]: Administration of cromolyn to rats: serum pharmacokinetics by HPLC. In kind it is in vivo, Sprague-Dawley rats. How it is done:
Male Sprague-Dawley rats weighing 225-275 grams were fasted for 24 hours. Rats were anesthized by intra-muscular injection with ketamine and thorazine. Experimental groups were dosed by oral gavage or by intravenous injection. Blood samples were collected serially via the tail artery. Serum obtained from whole blood was acidified and cromolyn extracted with ethyl acetate. The ethyl acetate was added to phosphate buffer or back extraction of cromolyn. Pharmacokinetic parameters were determined from extracted serum by HPLC.

Data set [2] is described as follows: Single escalating dose study of Cromolyn/SNAC capsules: plasma pharmacokinetics of cromolyn and SNAC. To be noted: with SNAC. How it is done: This study was a randomized, open label, oral, single escalating dose administration study in healthy, fasted volunteers.
The study was carried out in two parts. […] Safety and pharmacokinetic measures were collected and evaluated following each dose.
On day one of each study treatment period, medication (capsules) was administered following an 8-hour overnight fast. The capsules were swallowed with up to 120 mL of water to the subjects in an upright position.
The process could be summarized as follows: First, sieve SNAC powder through a screen, or delump it using a pestle/mortar.

The nature of data set [3]: Multiple dose study (twice daily for ten days): plasma pharmacokinetics of cromolyn and SNAC. How it is done:
Two groups of human males were defined: group 1 consisted of 12 healthy male volunteers, and group 2 had 12 allergic male volunteers. […] The dosing regimen is illustrated in Table 7 below.
Each subject received oral dosing of the study medication twice a day for nine days. On the last day (i.e., day 10), only the morning dose was administered. The capsules were administered with up to 200 mL of water to the subjects in an upright position. The first dose of each day was administered following an overnight fast, and the second dose of each day was administered at least 1 hour before a meal or 4 hours after a meal. No food was allowed for at least 4 hours before the oral dosing.
Pharmacodynamics were measured for Group 1 and 2 by measuring the length and width of the wheal and flare reaction, and permanent records were generated by marking on transparent tapes and/or by photographs. For Group 2 only, pharmacodynamics were also measured by VAS scores and PNIF measurements before and after nasal provocation test.

For the next data set, the system named is wheal and flare reaction. Nature of the data set: Wheal and flare reaction after intracutaneous injection of codeine/histamine or allergen/histamine. In kind it is in vivo, human. As to conditions: stimulated with codeine. On the procedure:
From the literature there are indications that nasal and lung mast cells are more sensitive to cromolyn. […] Healthy subjects received codeine/histamine to induce wheal and flare reaction, and allergic subjects received allergen/histamine to induce wheal and flare reaction.
Wheal and flare reaction was read 15 min. after the injections of codeine/histamine or allergen/histamine, traced by pen onto transparent cellophane and the length and width of the reaction was measured. Wheal and flare reaction was measured for Group 1 (healthy subjects) after intracutaneous injection of codeine/histamine before the morning dose on day 1, at 45 minutes after the morning dose on days 1, 2, 4, 6, 8 and 10, and at 4 and 8 hours after the morning dose on days 2, 4 and 10. Wheal and flare reaction was measured for Group 2 (subjects with allergies) after injection with allergen/histamine before the morning dose on day 1, at 60 minutes after the morning dose on days 4 and 10, and at 8 hours after the morning dose on day 4.

For data set [4] the following is noted: cited from earlier work.
For data set [5] the following is noted: cited from earlier work. The source holds these as a separate data set.
Data set [6] deals with airway resistance of the sheep after challenge with ascaris. Kind of data set: Airway resistance after ascaris challenge in sheep given oral cromolyn.
Experimental: A control formulation without cromolyn was also administered to an additional group. The biological effect of the cromolyn was assessed using changes in airway resistance of the sheep after challenge with ascaris.
Data set [7] can be described thus: Single dose study: safety and tolerability. As to conditions: SNAC administered alone. It is filed as in vivo, human.
Experimental: Cromolyn sodium was orally administered to healthy human subjects in a study designed to evaluate the safety, tolerability, oral absorption and pharmacokinetics data following various doses of cromolyn orally administered in combination with the delivery agent SNAC as capsules. […] This study was a randomized, open label, oral, single escalating dose administration study in healthy, fasted volunteers.
On day one of each study treatment period, medication (capsules) was administered following an 8-hour overnight fast. The capsules were swallowed with up to 120 mL of water to the subjects in an upright position. After each dosing, safety, and pharmacokinetic measures were taken, and cromolyn concentrations were evaluated.
Setting [8] is: serum cromolyn, Cromolyn 1.5 mg/kg IV.

The text below walks through data of US20040259952A1 (priority 2001, published 2004).

For the compound “5,5′-[(2-hydroxy-1,3-propanediyl)bis-(oxy)]4-oxo-4H-1-benzopyran-2-carboxylic acid [cromolyn]”, in data set [1] (control group, cromolyn alone), the serum cromolyn concentrations result is listed as “No detectable”. In data set [1] (intravenous cromolyn 1.5 mg/kg), the “area under the serum concentration-time curve (AUC)” value amounted to 20.4 µg·min/mL, the “peak serum concentration (Cmax)” value was 1300 ng/mL and the “time of peak serum concentration (Tmax)” value was 0 h. Besides, in data set [1] (setting [8]), the “Avg. AUC” value came out at 20.4 µg·min/mL, the “Avg. Cmax” value came out at 1300 ng/mL and the Tmax was 0 h. In data set [2], the mean elimination half-life lay within 60 to 120 min and the “time of maximum plasma concentrations post-dose” value is “about 20 minutes”. Also, the “time within which plasma concentrations declined to negligible levels” value in data set [3] (after each drug administration) is not above 4 h. For the same compound, the “oral absorption (plasma concentration)” value in data set [3] (cromolyn administered without SNAC) is listed as less than 2.3 ng/mL. In addition, the mean plasma concentrations result in data set [3] (cromolyn given in combination with 600 mg SNAC) is reported as “up to 65 ng/mL”. Moreover, the “time of peak concentrations after drug administration” value in data set [3] (cromolyn given orally in combination with SNAC, fasting male volunteers) is reported as “approximately 20 minutes”. The compound also registered a plasma half-life in data set [3] (multiple dose study) of approximately 45 min. The “effects on skin mast cell degranulation (wheal and flare)” value in the data set with wheal and flare reaction was “no significant effects”. The “dose eliminated unchanged in the feces” value in data set [4] (in vivo) is on record as “Roughly 98%”. Moreover, the absolute bioavailability result in data set [4] (inhalation dose of 20 mg) is “about 8%”. The “inhaled dose that reaches the lungs” value in data set [4] (inhalation) is listed as 5-10%. Besides, in data set [4] (oral cromolyn without the delivery agents), the systemic bioavailability result is recorded as “approximately 1%”. Further, the solubility in water entry in data set [5] is “freely soluble in water”. In data set [6] (100 mg/kg cromolyn and 300 mg/kg delivery agent 12 hours prior to challenge), the “mean protection vs. the peak control response” value is 77%. For the same compound, the “P-Acaris % (change in airway resistance)” value in data set [6] (Drug Trial, Means, 300 mg/kg CR-1 & 100 mg/kg Cromolyn oral 12 hrs. before Ag. challenge) is recorded as “approximately 157%”.

On to `O=C([O-])CCCCCCCNC(=O)c1ccccc1O.[Na+]` [SNAC, Sodium N-[8-(2-hydroxybenzoyl)amino]caprylate], for which, in data set [7], the “effect on human subjects” value was “did not display any significant effect”. Besides, in data set [3] (male, human, in vivo), the time to peak (Tmax) was approximately 30 min and the half-life was approximately 25 min. For the same compound, the “accumulation during multiple dose treatment” value in data set [3] (twice daily dosing) is on record as “no accumulation”.

As a reminder, the Tmax is the time from dosing to the highest level. As a reminder, the half-life is how long it takes for the measured level to halve.
